# Measured values as given in article PMC7914897, “Cytotoxic Potential of a-Azepano- and 3-Amino-3,4-SeCo-Triterpenoids” (International Journal of Molecular Sciences, 2021).
# Columns and labels:
# [1] = system: Prostate cancer subpanel; assay: NCI-60 screen, subpanel; conditions: Homo sapiens
# [2] = system: SK-MEL-5 (Melanoma); assay: NCI-60 screen (SRB, 48 h); conditions: Homo sapiens
# [3] = system: COLO 205 (Colon cancer); assay: NCI-60 screen (SRB, 48 h); conditions: Homo sapiens
# [4] = system: SNB-19 (CNS cancer); assay: NCI-60 screen (SRB, 48 h); conditions: Homo sapiens
# [5] = system: NCI-H460 (NSC lung cancer); assay: NCI-60 screen (SRB, 48 h); conditions: Homo sapiens
# [6] = system: SK-MEL-2 (Melanoma); assay: NCI-60 screen (SRB, 48 h); conditions: Homo sapiens
# [7] = system: NCI-H226 (NSC lung cancer); assay: NCI-60 screen (SRB, 48 h); conditions: Homo sapiens
# [8] = system: MCF7 (Breast cancer); assay: NCI-60 screen (SRB, 48 h); conditions: Homo sapiens
# [9] = system: Melanoma subpanel; assay: NCI-60 screen, subpanel; conditions: Homo sapiens
# [10] = system: U251 (CNS cancer); assay: NCI-60 screen (SRB, 48 h); conditions: Homo sapiens
# [11] = system: Renal Cancer subpanel; assay: NCI-60 screen, subpanel; conditions: Homo sapiens
# [12] = system: SK-OV-3 (Ovarian cancer); assay: NCI-60 screen (SRB, 48 h); conditions: Homo sapiens
# [13] = system: SK-MEL-28 (Melanoma); assay: NCI-60 screen (SRB, 48 h); conditions: Homo sapiens
# [14] = system: HOP-62 (NSC lung cancer); assay: NCI-60 screen (SRB, 48 h); conditions: Homo sapiens
# [15] = system: CCRF-CEM (Leukemia); assay: NCI-60 screen (SRB, 48 h); conditions: Homo sapiens
# [16] = system: Breast cancer subpanel; assay: NCI-60 screen, subpanel; conditions: Homo sapiens
# [17] = system: MOLT-4 (Leukemia); assay: NCI-60 screen (SRB, 48 h); conditions: Homo sapiens
# [18] = system: MDA-MB-31/ATCC (Breast cancer); assay: NCI-60 screen (SRB, 48 h); conditions: Homo sapiens
# [19] = system: MDA-MB-468 (Breast cancer); assay: cells; conditions: Homo sapiens
# [20] = system: SNB-75 (CNS cancer); assay: NCI-60 screen (SRB, 48 h); conditions: Homo sapiens
# [21] = system: HCC-2998 (Colon cancer); assay: NCI-60 screen (SRB, 48 h); conditions: Homo sapiens
# [22] = system: RPMI-8226 (Leukemia); assay: NCI-60 screen (SRB, 48 h); conditions: Homo sapiens
# [23] = system: Leukemia subpanel; assay: cells; conditions: Homo sapiens
# [24] = system: MALME-3M (Melanoma); assay: NCI-60 screen (SRB, 48 h); conditions: Homo sapiens
# [25] = system: OVCAR-3 (Ovarian cancer); assay: cells; conditions: Homo sapiens
# [26] = system: EKVX (NSC lung cancer); assay: NCI-60 screen (SRB, 48 h); conditions: Homo sapiens
# [27] = system: OVCAR-5 (Ovarian cancer); assay: NCI-60 screen (SRB, 48 h); conditions: Homo sapiens
# [28] = system: MDA-MB-435 (Melanoma); assay: NCI-60 screen (SRB, 48 h); type: cell-based; conditions: Homo sapiens
# [29] = system: 786-0 (Renal cancer); assay: NCI-60 screen (SRB, 48 h)
smiles,measurement,setting,value
"CC1(C)CC[C@]23CC[C@]4(C)[C@H](CC[C@@H]5[C@@]6(C)CCCNC(C)(C)[C@@H]6CC[C@]54C)[C@H]2[C@H]1OC3 [Compound 7, Azepanoallobetulin]",IC (TGI),"[1]; 48 h, read-out: TGI MG_MID",3.2 µM
same,GI50,[1]; read-out: GI50 MG_MID,1.67 µM
same,CC50,[1]; read-out: LC50 MG_MID,6.12 µM
same,GI50,[2]; SK-MEL-5,1.69 µM
same,IC (TGI),"[2]; SK-MEL-5, 48 h, read-out: TGI",3.06 µM
same,CC50,"[2]; SK-MEL-5, read-out: LC50",5.53 µM
same,GI50,[3]; COLO 205,1.28 µM
same,IC (TGI),"[3]; COLO 205, 48 h, read-out: TGI",2.68 µM
same,CC50,"[3]; COLO 205, read-out: LC50",5.61 µM
same,GI50,[4]; SNB-19,1.85 µM
same,IC (TGI),"[4]; SNB-19, 48 h, read-out: TGI",3.35 µM
same,CC50,"[4]; SNB-19, read-out: LC50",6.07 µM
same,GI50,[5]; NCI-H460,0.65 µM
same,IC (TGI),"[5]; NCI-H460, 48 h, read-out: TGI",2.2 µM
same,CC50,"[5]; NCI-H460, read-out: LC50",6.12 µM
same,GI50,[6]; SK-MEL-2,1.95 µM
same,IC (TGI),"[6]; SK-MEL-2, 48 h, read-out: TGI",4.09 µM
same,CC50,"[6]; SK-MEL-2, read-out: LC50",8.57 µM
same,GI50,[7]; NCI-H226,1.7 µM
same,IC (TGI),"[7]; NCI-H226, 48 h, read-out: TGI",3.47 µM
same,CC50,"[7]; NCI-H226, read-out: LC50",7.09 µM
same,GI50,[8]; MCF7,1.44 µM
same,IC (TGI),"[8]; MCF7, 48 h, read-out: TGI",3.01 µM
same,CC50,"[8]; MCF7, read-out: LC50",6.3 µM
same,IC (TGI),"[9]; 48 h, read-out: TGI MG_MID",3.37 µM
same,GI50,[9]; read-out: GI50 MG_MID,1.76 µM
same,CC50,[9]; read-out: LC50 MG_MID,6.52 µM
same,GI50,[10]; U-251,1.74 µM
same,IC (TGI),"[10]; U-251, 48 h, read-out: TGI",3.23 µM
same,CC50,"[10]; U-251, read-out: LC50",5.98 µM
same,IC (TGI),"[11]; 48 h, read-out: TGI MG_MID",3.22 µM
same,GI50,[11]; read-out: GI50 MG_MID,1.67 µM
same,CC50,[11]; read-out: LC50 MG_MID,6.21 µM
same,GI50,[12]; SK-OV-3,2.73 µM
same,IC (TGI),"[12]; SK-OV-3, 48 h, read-out: TGI",7.93 µM
same,CC50,"[12]; SK-OV-3, read-out: LC50",36.9 µM
same,GI50,[13]; SK-MEL-28,1.66 µM
same,IC (TGI),"[13]; SK-MEL-28, 48 h, read-out: TGI",3.18 µM
same,CC50,"[13]; SK-MEL-28, read-out: LC50",6.07 µM
same,GI50,[14]; HOP-62,1.91 µM
same,IC (TGI),"[14]; HOP-62, 48 h, read-out: TGI",3.75 µM
same,CC50,"[14]; HOP-62, read-out: LC50",7.34 µM
same,GI50,[15],2.32 µM
same,IC (TGI),"[15]; 48 h, read-out: TGI",6.73 µM
same,CC50,[15]; read-out: LC50,> 100 µM
same,IC (TGI),"[16]; 48 h, read-out: TGI MG_MID",3.55 µM
same,GI50,[16]; read-out: GI50 MG_MID,1.68 µM
same,CC50,[16]; read-out: LC50 MG_MID,6.06 µM
same,GI50,[17]; MOLT-4,2.1 µM
same,IC (TGI),"[17]; MOLT-4, 48 h, read-out: TGI",5.04 µM
same,CC50,"[17]; MOLT-4, read-out: LC50",74.8 µM
same,GI50,[18],1.66 µM
same,IC (TGI),"[18]; 48 h, read-out: TGI",3.2 µM
same,CC50,[18]; read-out: LC50,6.17 µM
same,GI50,[19]; MDA-MB-468,1.61 µM
same,IC (TGI),"[19]; MDA-MB-468, 48 h, read-out: TGI",3.45 µM
same,CC50,"[19]; MDA-MB-468, read-out: LC50",7.39 µM
same,GI50,[20]; SNB-75,1.5 µM
same,IC (TGI),"[20]; SNB-75, 48 h, read-out: TGI",2.94 µM
same,CC50,"[20]; SNB-75, read-out: LC50",5.76 µM
same,GI50,[21]; HCC 2998,1.54 µM
same,IC (TGI),"[21]; HCC 2998, 48 h, read-out: TGI",2.97 µM
same,CC50,"[21]; HCC 2998, read-out: LC50",5.72 µM
same,GI50,[22]; RPMI-8226,1.94 µM
same,IC (TGI),"[22]; RPMI-8226, 48 h, read-out: TGI",4.58 µM
same,CC50,"[22]; RPMI-8226, read-out: LC50",96.8 µM
same,IC (TGI),"[23]; 48 h, read-out: TGI MG_MID",5.49 µM
same,GI50,[23]; read-out: GI50 MG_MID,1.96 µM
same,CC50,[23]; read-out: LC50 MG_MID,94.3 µM
same,GI50,[24],1.79 µM
same,IC (TGI),"[24]; 48 h, read-out: TGI",3.47 µM
same,CC50,[24]; read-out: LC50,6.72 µM
same,GI50,[25]; OVCAR-3,1.62 µM
same,IC (TGI),"[25]; OVCAR-3, 48 h, read-out: TGI",3.1 µM
same,CC50,"[25]; OVCAR-3, read-out: LC50",5.94 µM
same,GI50,[26],1.68 µM
same,IC (TGI),"[26]; 48 h, read-out: TGI",3.37 µM
same,CC50,[26]; read-out: LC50,6.77 µM
same,GI50,[27]; OVCAR-5,1.6 µM
same,IC (TGI),"[27]; OVCAR-5, 48 h, read-out: TGI",3.04 µM
same,CC50,"[27]; OVCAR-5, read-out: LC50",5.8 µM
same,GI50,[28]; MDA-MB-435,1.65 µM
same,IC (TGI),"[28]; MDA-MB-435, 48 h, read-out: TGI",3.02 µM
same,CC50,"[28]; MDA-MB-435, read-out: LC50 (the source's name)",5.55 µM
same,Growth % of the Most Sensitive Cell Lines,"[29]; 786-0, 1 dose 10 µM",−96.23%
same,GI50,"[29]; Homo sapiens, 786-0",1.66 µM
same,IC (TGI),"[29]; Homo sapiens, 786-0, 48 h, read-out: TGI",3.21 µM
same,CC50,"[29]; Homo sapiens, 786-0, read-out: LC50",6.18 µM
